The test concerns the target T1, IRE1a (Homo sapiens, UniProt O75460).
T1 construct: purchased SignalChem
In words: In vitro FRET assay (IRE1a cleavage of XBP1 RNA probe). The format is biochemical. The conditions noted are these: 2 nM SignalChem IRE1a, tested as Formic Acid Salt (37: HCl Salt). The procedure: In vitro FRET assay was performed to evaluate the ability of select compounds to inhibit IRE1, the results of which are summarized in Table 3. To perform the in vitro FRET assay, 1× complete assay buffer (CAB: […], 50 mM sodium citrate pH 7.15, 1 mM magnesium acetate, 0.02% tween 20) was used to SignalChem IRE1a protein to a final concentration of 2 nM. Selected compounds were serially diluted with DMSO in a non-binding black 384-well plate for a total of 15 ul in each well. 2 ul of the serially diluted compound or DMSO control were then added to new wells containing 98 ul of 1× CAB, for a total volume of 100 ul, 10 ul of which were then transferred to wells of a new plate. 5 ul of the diluted IRE1a was then added to each well. 5 ul of a […] XBP1 RNA probe was then added to each well. Fluorescence was then read over 30 minutes in kinetic mode (485/515 nm).
Two RNA probes were used, XBP1 wildtype (SEQ ID NO: 2) which is able to be spliced by active IRE1a or XBP1 mutant (SEQ ID NO: 3) which is unable to be spliced. Each probe contained a 5′ 6-FAM modification and a 3′ IOWA black FQ modification. […]

The structures appear in SMILES notation.

T1 sequence (O75460 19-977): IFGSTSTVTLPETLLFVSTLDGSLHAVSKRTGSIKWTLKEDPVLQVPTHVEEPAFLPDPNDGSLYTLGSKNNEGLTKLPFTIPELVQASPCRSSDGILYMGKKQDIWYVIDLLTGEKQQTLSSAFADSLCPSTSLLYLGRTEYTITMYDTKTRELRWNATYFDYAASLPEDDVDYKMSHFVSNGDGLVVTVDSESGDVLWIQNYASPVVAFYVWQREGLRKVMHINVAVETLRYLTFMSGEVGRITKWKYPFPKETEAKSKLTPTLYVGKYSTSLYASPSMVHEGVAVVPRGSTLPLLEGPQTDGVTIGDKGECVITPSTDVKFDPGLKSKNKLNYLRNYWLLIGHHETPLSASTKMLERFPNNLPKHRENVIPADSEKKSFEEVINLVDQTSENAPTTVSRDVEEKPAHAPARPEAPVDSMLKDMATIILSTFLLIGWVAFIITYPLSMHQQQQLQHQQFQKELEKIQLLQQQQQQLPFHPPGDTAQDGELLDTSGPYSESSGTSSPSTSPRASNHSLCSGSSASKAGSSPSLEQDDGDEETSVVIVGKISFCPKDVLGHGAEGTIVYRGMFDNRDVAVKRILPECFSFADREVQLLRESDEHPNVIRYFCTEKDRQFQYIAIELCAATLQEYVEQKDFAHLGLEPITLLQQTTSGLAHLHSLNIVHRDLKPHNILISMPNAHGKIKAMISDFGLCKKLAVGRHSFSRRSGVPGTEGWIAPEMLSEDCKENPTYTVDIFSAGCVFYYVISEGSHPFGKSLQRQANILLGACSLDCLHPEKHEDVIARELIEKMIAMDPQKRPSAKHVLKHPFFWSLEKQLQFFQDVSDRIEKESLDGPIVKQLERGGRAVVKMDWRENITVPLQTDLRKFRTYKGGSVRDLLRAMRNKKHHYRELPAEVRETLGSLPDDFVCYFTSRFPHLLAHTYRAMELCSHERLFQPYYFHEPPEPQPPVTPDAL

In the case of `Cc1cc(N(C)S(=O)(=O)c2ccccc2Cl)ccc1-c1cc(O)c2nc(N[C@H]3CC[C@H](N)CC3)ncc2c1` [Compound 30, N-(4-(2-(((1r,4r)-4-aminocyclohexyl)amino)-8-hydroxyquinazolin-6-yl)-3-methylphenyl)-2-chloro-N-methylbenzene-sulfonamide], the IC50 (usually the midpoint of a concentration-inhibition curve) is 50 to 100 nM.

Regarding `CCc1cc(-c2ccc(N(C)S(=O)(=O)c3ccccc3Cl)cc2C)cc2cnc(N[C@H]3CC[C@H](N)CC3)nc12` [Compound 31, N-(4-(2-(((1r,4r)-4-aminocyclohexyl)amino)-8-ethylquinazolin-6-yl)-3-methylphenyl)-2-chloro-N-methylbenzene-sulfonamide], the IC50 fell in the range of 100 to 10000 nM.

Regarding `COc1cc(-c2ccc(NS(=O)(=O)c3ccccc3Cl)cc2C)cc2cnc(N[C@H]3CC[C@H](N)CC3)nc12` [Compound 36, N-(4-(2-(((1r,4r)-4-aminocyclohexyl)amino)-8-methoxyquinazolin-6-yl)-3-methylphenyl)-2-chlorobenzene-sulfonamide], the IC50 was at most 5 nM.

For `CCc1cc(-c2sc(NS(=O)(=O)c3ccccc3Cl)nc2C)cc2cnc(N[C@H]3CC[C@H](N)CC3)nc12` [Compound 38], the IC50 is at most 5 nM.

For `CCc1cc(-c2cnc(NS(=O)(=O)c3ccccc3Cl)nc2)cc2cnc(N[C@H]3CC[C@H](N)CC3)nc12` [Compound 39, N-(5-(2-(((1r,4r)-4-aminocyclohexyl)amino)-8-ethylquinazolin-6-yl)pyrimidin-2-yl)-2-chlorobenzene-sulfonamide], the IC50 is at most 5 nM.

For the molecule `CC(C)c1cc(-c2cc(NS(=O)(=O)c3ccccc3Cl)nn2C)cc2cnc(N[C@H]3CC[C@H](N)CC3)nc12` [Compound 40, N-(5-(2-(((1r,4r) 4-aminocyclohexyl)amino)-8-isopropylquiazolin-6-yl)-1-methyl-1H-pyrazol-3-yl)-2-chlorobenzene-sulfonamide], the IC50 was at most 5 nM.

On to `CCc1cc(-c2cnc(NS(=O)(=O)c3ccccc3Cl)s2)cc2cnc(N[C@H]3CC[C@H](N)CC3)nc12` [Compound 41], for which the IC50 is at most 5 nM.

Consider `CCc1cc(-c2cc(F)c(NS(=O)(=O)c3ccccc3Cl)cc2OC)cc2cnc(N[C@H]3CC[C@H](N)CC3)nc12` [Compound 42, N-(4-(2-(((1r,4r)-4-aminocyclohexyl)amino)-8-ethylquinazolin-6-yl)-2-fluoro-5-methoxyphenyl)-2-chlorobenzene-sulfonamide], for which the IC50 is at most 5 nM.

Turning to `CCc1cc(-n2cc(NS(=O)(=O)c3ccccc3Cl)cn2)cc2cnc(N[C@H]3CC[C@H](N)CC3)nc12` [Compound 43, N-(1-(2-(((1r,4r)-4-aminocyclohexyl)amino)-8-ethylquinazolin-6-yl)-1H-pyrazol-4-yl)-2-chlorobenzene-sulfonamide], the IC50 is at most 5 nM.

Regarding `COc1cc(-c2cc(NS(=O)(=O)c3ccccc3Cl)nn2C)cc2cnc(N[C@H]3CC[C@H](N)CC3)nc12` [Compound 45, N-(5-(2-(((1r,4r)-4-aminocyclohexyl)amino)-8-methoxyquinazolin-6-yl)-1-methyl-1H-pyrazol-3-yl)-2-chlorobenzene-sulfonamide], the IC50 is 50 to 100 nM.

On to `N[C@H]1CC[C@H](Nc2ncc3cc(-c4ccc(NS(=O)(=O)c5ccccc5Cl)nn4)ccc3n2)CC1` [Compound 49, N-(6-(2-(((1r,4r)-4-aminocyclohexyl)amino)quinazolin-6-yl)pyridazin-3-yl)-2-chlorobenzene-sulfonamide], for which the IC50 is at most 5 nM.

`N[C@H]1CC[C@H](Nc2ncc3cc(-c4ccc(NS(=O)(=O)c5ccccc5Cl)c(F)c4)ccc3n2)CC1` [Compound 50, N-(4-(2-(((1r,4r)-4-aminocyclohexyl)amino)quinazolin-6-yl)-2-fluorophenyl)-2-chlorobenzene-sulfonamide]: the IC50 is at most 5 nM.

Take `CCc1cc(-c2cc(F)c(NS(=O)(=O)c3ccccc3Cl)c(F)c2)cc2cnc(N[C@H]3CC[C@H](N)CC3)nc12` [Compound 63, N-(4-(2-(((1r,4r)-4-aminocyclohexyl)amino)-8-ethylquinazolin-6-yl)-2,6-difluorophenyl)-2-chlorobenzene-sulfonamide]: the IC50 was at most 5 nM.

The values above are taken from US12071424B2, “IRE1 small molecule inhibitors” (Cornell University, priority 2017, dated 2024).
